Measured values reported in patent US20260285850A1, “SUBSTITUTED OXAZOLIDINONES AND IMIDAZOLINONES AS HERBICIDES” (FMC CORPORATION, priority 2023, published 2026).

Tests used:
Assay type in all cases: in vivo
corn (Zea mays) [1] = experiment: Test A preemergence soil spray, visual injury rating 0-100; conditions: 10 days
Description: (§1) Seeds of plant species selected from barnyardgrass (Echinochloa crus-galli), blackgrass (Alopecurus myosuroides), corn (Zea mays), foxtail, giant (giant foxtail, Setaria faberi), green foxtail (Setaria viridis), goosegrass (Eleusine indica), kochia (Bassia scoparia), oat, wild (wild oat, Avena fatua), palmer (palmer amaranth, palmer pigweed, Amaranthus palmeri), ragweed (common ragweed, Ambrosia artemisiifolia), ryegrass, Italian (italian ryegrass, Lolium multiflorum), soybean (Glycine max) and wheat (Triticum aestivum) were planted into a blend of loam soil and sand and treated preemergence with a directed soil spray using test chemicals formulated in a non-phytotoxic solvent mixture which included a surfactant.
(§2) At the same time, plants selected from these crops and weed species and also galium (catchweed bedstraw, Galium aparine) and horseweed (Erigeron canadensis) were planted in pots containing the same blend of loam soil and sand and treated with postemergence applications of test chemicals formulated in the same manner. Plants ranged in height from 2 to 10 cm and were in the one- to two-leaf stage for the postemergence treatment. Treated plants and untreated controls were maintained in a greenhouse for 10 days, after which time all treated plants were compared to untreated controls and visually evaluated for injury. Plant response ratings, summarized in Table A, are based on a 0 to 100 scale where 0 is no effect and 100 is complete control. A dash (-) response means no test result.

[2] = tested on: barnyardgrass (Echinochloa crus-galli); experiment: as above; conditions: 10 days
Description: as §1, §2

soybean (Glycine max) [3] = experiment: as above; conditions: 10 days
Description: as §1, §2

[4] = tested on: ragweed (common ragweed, Ambrosia artemisiifolia); experiment: as above; conditions: 10 days
Description: as §1, §2

[5] = tested on: palmer (palmer amaranth, palmer pigweed, Amaranthus palmeri); experiment: as above; conditions: 10 days
Description: as §1, §2

[6] = tested on: ryegrass, Italian (italian ryegrass, Lolium multiflorum); experiment: as above; conditions: 10 days
Description: as §1, §2

[7] = tested on: blackgrass (Alopecurus myosuroides); experiment: as above; conditions: 10 days
Description: as §1, §2

kochia (Bassia scoparia) [8] = experiment: as above; conditions: 10 days
Description: as §1, §2

[9] = tested on: oat, wild (wild oat, Avena fatua); experiment: as above; conditions: 10 days
Description: as §1, §2

[10] = tested on: wheat (Triticum aestivum); experiment: as above; conditions: 10 days
Description: as §1, §2

corn (Zea mays) [11] = experiment: Test A postemergence application, visual injury rating 0-100; conditions: Postemergence
Description: as §1, §2

[12] = tested on: galium (catchweed bedstraw, Galium aparine); experiment: as above; conditions: Postemergence
Description: as §1, §2

[13] = tested on: barnyardgrass (Echinochloa crus-galli); experiment: as above; conditions: Postemergence
Description: as §1, §2

soybean (Glycine max) [14] = experiment: as above; conditions: Postemergence
Description: as §1, §2

[15] = tested on: ragweed (common ragweed, Ambrosia artemisiifolia); experiment: as above; conditions: Postemergence
Description: as §1, §2

[16] = tested on: palmer (palmer amaranth, palmer pigweed, Amaranthus palmeri); experiment: as above; conditions: Postemergence
Description: as §1, §2

[17] = tested on: ryegrass, Italian (italian ryegrass, Lolium multiflorum); experiment: as above; conditions: Postemergence
Description: as §1, §2

[18] = tested on: blackgrass (Alopecurus myosuroides); experiment: as above; conditions: Postemergence
Description: as §1, §2

kochia (Bassia scoparia) [19] = experiment: as above; conditions: Postemergence
Description: as §1, §2

[20] = tested on: horseweed (Erigeron canadensis); experiment: as above; conditions: Postemergence
Description: as §1, §2

[21] = tested on: oat, wild (wild oat, Avena fatua); experiment: as above; conditions: Postemergence
Description: as §1, §2

[22] = tested on: wheat (Triticum aestivum); experiment: as above; conditions: Postemergence
Description: as §1, §2

[23] = 125 g ai/ha, 0 = no effect, 100 = complete control
[24] = 31 g ai/ha, greenhouse 10 days, 0 no effect, 100 complete control
[25] = 125 g ai/ha, 10 days, 0 is no effect, 100 is complete control

For CCS(=O)(=O)NC(=O)C1C=CC(NC(=O)C2(C)CN(c3cc(F)cc(F)c3)C(=O)O2)C1 (centres unmarked) [Compound 81], which “Corn plant response rating” value (corn (Zea mays) [1]; 31 g ai/ha, 0 to 100 scale) is on record?
The value was 0.

What about the “Corn plant response rating (0 to 100 scale)” value (corn (Zea mays) [1]; [23]) of the same compound?
The value was 80.

What about the “Barnyardgrass plant response rating” value ([2]; 31 g ai/ha, 0 to 100 scale) of the same compound?
The value was 90.

What about the “Barnyardgrass plant response rating (0 to 100 scale)” value [2, 23] of the same compound?
Its value is 90.

What about the “Soybean plant response rating” value (soybean (Glycine max) [3]; 31 g ai/ha, 0 to 100 scale) of the same compound?
The value was 10.

And the “Soybean plant response rating (0 to 100 scale)” value (soybean (Glycine max) [3]; [23])?
Its value is 70.

What about the “Ragweed plant response rating” value ([4]; 31 g ai/ha, 0 to 100 scale) of the same compound?
The value was 20.

And the “Ragweed plant response rating (0 to 100 scale)” value [4, 23]?
Its value is 10.

What about the “Amaranth, Palmer (Pigweed, Palmer) plant response rating” value ([5]; 31 g ai/ha, 0 to 100 scale) of the same compound?
Its value is 50.

What about the “Amaranth, Palmer plant response rating (0 to 100 scale)” value [5, 23] of the same compound?
The value was 90.

What about the “Ryegrass, Italian plant response rating” value ([6]; 31 g ai/ha, 0 to 100 scale) of the same compound?
The value was 60.

What about the “Ryegrass, Italian plant response rating (0 to 100 scale)” value (“Ryegrass … (0 to 100 scale)” for short) [6, 23] of the same compound?
The value was 80.

What about the “Blackgrass plant response rating” value ([7]; 31 g ai/ha, 0 to 100 scale) of the same compound?
Its value is 30.

And the “Blackgrass plant response rating (0 to 100 scale)” value [7, 23]?
The value was 70.

And the “Kochia plant response rating” value (kochia (Bassia scoparia) [8]; 31 g ai/ha, 0 to 100 scale)?
The value was 70.

What about the “Kochia plant response rating (0 to 100 scale)” value (kochia (Bassia scoparia) [8]; [23]) of the same compound?
The value was 90.

What about the “Oat, Wild plant response rating” value ([9]; 31 g ai/ha, 0 to 100 scale) of the same compound?
Its value is 40.

What about the “Oat, Wild plant response rating (0 to 100 scale)” value (from here on “Oat … (0 to 100 scale)”) [9, 23] of the same compound?
Its value is 70.

And the “Wheat plant response rating” value ([10]; 31 g ai/ha, 0 to 100 scale)?
Its value is 40.

And the “Wheat plant response rating (0 to 100 scale)” value [10, 23]?
The value was 90.

What about the “Corn plant response rating (0 to 100 scale)” value (corn (Zea mays) [11]; [24]) of the same compound?
Its value is 60.

What about the “Corn plant response rating (0 to 100 scale)” value (corn (Zea mays) [11]; [25]) of the same compound?
The value was 100.

What about the “Galium plant response rating (0 to 100 scale)” value [12, 24] of the same compound?
The value was 80.

What about the “Galium plant response rating (0 to 100 scale)” value [12, 25] of the same compound?
Its value is 80.

And the “Barnyardgrass plant response rating (0 to 100 scale)” value [13, 24]?
Its value is 90.

And the “Barnyardgrass plant response rating (0 to 100 scale)” value [13, 25]?
Its value is 90.

And the “Soybean plant response rating (0 to 100 scale)” value (soybean (Glycine max) [14]; [24])?
The value was 30.

What about the “Soybean plant response rating (0 to 100 scale)” value (soybean (Glycine max) [14]; [25]) of the same compound?
Its value is 50.

What about the “Ragweed plant response rating (0 to 100 scale)” value [15, 24] of the same compound?
Its value is 20.

What about the “Ragweed plant response rating (0 to 100 scale)” value [15, 25] of the same compound?
Its value is 50.

What about the “Amaranth, Palmer / Pigweed, Palmer plant response rating (0 to 100 scale)” value [16, 24] of the same compound?
Its value is 70.

And the “Amaranth, Palmer / Pigweed, Palmer plant response rating (0 to 100 scale)” value [16, 25]?
Its value is 70.

What about the “Ryegrass … (0 to 100 scale)” value [17, 24] of the same compound?
Its value is 50.

And the “Ryegrass … (0 to 100 scale)” value [17, 25]?
The value was 70.

What about the “Blackgrass plant response rating (0 to 100 scale)” value [18, 24] of the same compound?
The value was 0.

What about the “Blackgrass plant response rating (0 to 100 scale)” value [18, 25] of the same compound?
The value was 50.

What about the “Kochia plant response rating (0 to 100 scale)” value (kochia (Bassia scoparia) [19]; [24]) of the same compound?
The value was 80.

What about the “Kochia plant response rating (0 to 100 scale)” value (kochia (Bassia scoparia) [19]; [25]) of the same compound?
Its value is 90.

And the “Horseweed plant response rating (0 to 100 scale)” value [20, 24]?
Its value is 30.

What about the “Horseweed plant response rating (0 to 100 scale)” value [20, 25] of the same compound?
The value was 70.

And the “Oat … (0 to 100 scale)” value [21, 24]?
Its value is 80.

What about the “Oat … (0 to 100 scale)” value [21, 25] of the same compound?
The value was 90.

What about the “Wheat plant response rating (0 to 100 scale)” value [22, 24] of the same compound?
Its value is 90.

What about the “Wheat plant response rating (0 to 100 scale)” value [22, 25] of the same compound?
The value was 90.
